SMILES strings stand for the structures.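 Each compound was tested at five concentrations against cells in 96-well plates for 48 hours. GI50: concentration for 50% inhibition of growth. TGI: concentration producing complete growth inhibition.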

Some test systems named below: DMS 114 small cell lung; HCT-116 colon; UACC-62 melanoma; DLD-1 colon; SK-MEL-5 melanoma; TK-10 renal; KM20L2 colon; HOP-62 NSCLC; LXFL 529 NSCLC; HOP-18 NSCLC; RXF 393 renal; T-47D breast.
What all share (assay): NCI anticancer screen, dose series, 48 h

On to `O=C1c2ccccc2C2(O)Oc3cccc(O)c3C12O` (stereo not given), for which the TGI with DMS 114 small cell lung, in the assay on HCT-116 colon, in the assay on UACC-62 melanoma, in the assay with DLD-1 colon, in the assay with SK-MEL-5 melanoma and in the assay with TK-10 renal was above 100 µM each time. For the same compound, the TGI with KM20L2 colon, in the assay on HOP-62 NSCLC, with LXFL 529 NSCLC and in the assay with HOP-18 NSCLC was above 100 µM in each case.
Turning to `CCOC(=O)C1(C(=O)OCC)CC=C(C)CC12C(=O)Nc1ccccc12` (stereo not given), the TGI in the assay with DMS 114 small cell lung, with HCT-116 colon, in the assay on UACC-62 melanoma, in the assay on DLD-1 colon, in the assay with SK-MEL-5 melanoma and in the assay with TK-10 renal was above 100 µM each time. In addition, the TGI with KM20L2 colon, with HOP-62 NSCLC, in the assay on LXFL 529 NSCLC and with HOP-18 NSCLC was above 100 µM each time.
As for `Cn1cnc([N+](=O)[O-])c1Sc1nnc(C(F)(F)F)n1C`, the TGI was above 100 µM in the assay with DMS 114 small cell lung; 32.5 µM in the assay on HCT-116 colon; 33.5 µM in the assay on UACC-62 melanoma; 33.5 µM in the assay on DLD-1 colon; above 100 µM in the assay on SK-MEL-5 melanoma; 74.4 µM in the assay with TK-10 renal. The values for the TGI in the assay with HOP-62 NSCLC, with LXFL 529 NSCLC and with HOP-18 NSCLC were above 100 µM, 27.8 µM and 76.2 µM, respectively.
`COc1cc(C(CC(OC)OC)=C(C#N)C#N)cc(OC)c1OC`: the TGI in the assay with DMS 114 small cell lung is 87.6 µM; with HCT-116 colon, 44.1 µM; with UACC-62 melanoma, above 100 µM; in the assay on DLD-1 colon, 13.7 µM; with SK-MEL-5 melanoma it was 49.2 µM; with TK-10 renal it was above 100 µM. Also, the TGI was 69.4 µM with KM20L2 colon, above 100 µM with LXFL 529 NSCLC and above 100 µM in the assay on RXF 393 renal.
In the case of `COc1ccc(S(=O)(=O)N/N=C(\C)CN2C(=O)c3ccccc3C2=O)cc1`, the TGI in the assay on DMS 114 small cell lung, with HCT-116 colon, in the assay on UACC-62 melanoma, with DLD-1 colon, with SK-MEL-5 melanoma and with TK-10 renal was above 100 µM each time. The TGI in the assay with KM20L2 colon, with HOP-62 NSCLC, with LXFL 529 NSCLC and in the assay on HOP-18 NSCLC was above 100 µM throughout.
Consider `CCCCCCCCCC(=O)N[C@H]1CCc2cc(OC)c(OC)c(OC)c2-c2ccc(SC)c(=O)cc21`, for which the TGI with DMS 114 small cell lung was determined as 0.0403 µM; in the assay on HCT-116 colon it was 0.0586 µM; in the assay on UACC-62 melanoma, 15.3 µM; in the assay on DLD-1 colon, 57.7 µM; in the assay on SK-MEL-5 melanoma, 0.0826 µM; in the assay on TK-10 renal, 25.5 µM. For the same compound, the figures for the TGI in the assay with KM20L2 colon, in the assay on LXFL 529 NSCLC and with RXF 393 renal were 0.0387 µM, 96.7 µM and 0.0551 µM, respectively. Further, the GI50 with DLD-1 colon is 11.2 µM.
In the case of `COC1(OC)c2ccccc2C2(O)c3ccccc3C(=O)C12` (stereo not given), the TGI in the assay on DMS 114 small cell lung is above 100 µM; in the assay on HCT-116 colon, above 100 µM; in the assay with UACC-62 melanoma, above 100 µM; in the assay on SK-MEL-5 melanoma, 31.9 µM; in the assay on TK-10 renal it was above 100 µM; in the assay on KM20L2 colon, above 100 µM. Moreover, the TGI with LXFL 529 NSCLC, in the assay on HOP-18 NSCLC and in the assay with RXF 393 renal was above 100 µM in each case.
Take `COc1ccc(N2C(=O)C3c4[nH]c5ccccc5c4C4CCC(C(C)(C)C)CC4C3C2=O)cc1OC` (stereo not given): the TGI was 31.4 µM in the assay with HCT-116 colon; above 100 µM with UACC-62 melanoma; 39.9 µM in the assay with DLD-1 colon; above 100 µM with SK-MEL-5 melanoma; above 100 µM with KM20L2 colon; 34.8 µM in the assay with HOP-62 NSCLC. The TGI in the assay with LXFL 529 NSCLC is 32.5 µM; in the assay on HOP-18 NSCLC, 40.8 µM; in the assay on RXF 393 renal, 29.7 µM.
As to `Cc1nc2ccc(NCCN(C)C)c3c(=O)c4cc(O)ccc4n1c23`, the TGI in the assay on DMS 114 small cell lung stood at 2.14 µM; in the assay with HCT-116 colon it was 2.22 µM; in the assay with UACC-62 melanoma it was 5.63 µM; in the assay on SK-MEL-5 melanoma it was 10.5 µM; with TK-10 renal it was 12.5 µM; in the assay on HOP-62 NSCLC, 11.1 µM. Besides, the values for the TGI in the assay with LXFL 529 NSCLC and in the assay with T-47D breast were 11.1 µM and 14.8 µM, respectively.
In the case of `O=C1CCC2CCOc3ccc(O)c1c32` (stereo not given), the TGI with DMS 114 small cell lung, in the assay with HCT-116 colon, in the assay on UACC-62 melanoma, in the assay with DLD-1 colon, in the assay with SK-MEL-5 melanoma and with TK-10 renal was above 100 µM each time. For the same compound, the TGI in the assay on KM20L2 colon, in the assay with HOP-62 NSCLC and in the assay on RXF 393 renal was above 100 µM in each case.
For the compound `Oc1ccccc1C=Nc1ccccc1N=Cc1ccccc1O`, the TGI with DMS 114 small cell lung, with HCT-116 colon, in the assay on SK-MEL-5 melanoma, in the assay on TK-10 renal, in the assay with KM20L2 colon and in the assay on HOP-62 NSCLC was above 100 µM in each case. This compound also gave a TGI with LXFL 529 NSCLC above 100 µM.
Turning to `COc1ccc(/C=C/C(C(=O)O)C(=O)O)cc1`, the TGI in the assay on DMS 114 small cell lung, with HCT-116 colon, in the assay with UACC-62 melanoma, in the assay on DLD-1 colon, in the assay on SK-MEL-5 melanoma and with TK-10 renal was above 100 µM in each case. Further, the TGI in the assay with KM20L2 colon, in the assay on HOP-62 NSCLC and in the assay on LXFL 529 NSCLC was above 100 µM each time.
As to `CCc1cccc(C(C)CC)c1NC(=O)CC1C(=O)Nc2ccccc2S1=O` (stereo not given), the TGI in the assay with DMS 114 small cell lung, with HCT-116 colon, with UACC-62 melanoma, in the assay with DLD-1 colon, in the assay on SK-MEL-5 melanoma and in the assay on TK-10 renal was above 100 µM throughout. Also, the TGI in the assay with KM20L2 colon is above 100 µM; in the assay with LXFL 529 NSCLC, above 100 µM; with RXF 393 renal, 46.1 µM.
Take `COC(=O)C(=O)C(C#N)c1ccc(Cl)c(Cl)c1` (stereo not given): the TGI with HCT-116 colon, with UACC-62 melanoma, in the assay on DLD-1 colon, with SK-MEL-5 melanoma, in the assay on TK-10 renal and in the assay with KM20L2 colon was above 100 µM throughout. This compound also had a TGI in the assay with LXFL 529 NSCLC above 100 µM.

These data come from PubChem BioAssay (NCI).
